The record followed here is patent publication US4613355A, “Antibiotic having herbicidal activity” (Satoshi Omura, priority 1983, dated 1986).

≈ marks a conversion by molar mass, not a printed value. Bounds are passed on as bounds.

One data set concerns Rumex obtusifolius. Nature of the data set: Foliage treatment with different salts (Example 11). Format: in vivo. More on the design: key: 0 indicates no effect; 5 indicates complete kill. To be noted: Rumex obtusifolius (Plant No. 14), 1000 liter per hectare. As for the experimental part:
Aqueous solutions containing different salts of Phosalacine at different concentrations as active ingredients and 0.1% of octylphenylpolyoxy ethanol as surfactant were applied at a rate of 1000 liter per hectare to Rumex obtusifolius (Plant No. 14) at a certain stage of growth. 21 days after foliage treatment, damage to the plant was visually assessed on a scale of 0 to 5 as hereinbefore described. The salts used were prepared by the methods described in the reference mentioned above.

For data set [1], the system named is Klebsiella pneumoniae KB214. The data set can be described thus: MIC by agar dilution method. Format: cell-based. To be noted: medium A Davis's minimal medium (pH 7.0). (In agar dilution the substance is mixed into plates at graded concentrations.)
The next data set has as its system Aspergillus niger KF105. Nature of the data set: MIC by agar dilution method. Format: cell-based. As to conditions: medium B Dextrose Czapek' medium.
A further data set deals with Proteus vulgaris KB127. The data set can be described thus: MIC by agar dilution method. Type of data set: cell-based. To be noted: medium A Davis's minimal medium (pH 7.0).
In a further data set the test system is Cryptomeria japonica. The data set can be described thus: Foliage treatment of woody plants (Example 10). Format: in vivo. To be noted: in vivo. The text has this:
(§1) Aqueous solutions containing Phosalacine (Na salt) at different concentrations and 0.1% of octylphenylpolyoxy ethanol as surfactant were applied at a rate of 1500 liter per hectare to woody plants of about 60-70 cm in height. 7 and 14 days after the foliage treatment, damage to the plants was visually assessed on a scale of from 0 to 5 (cf. Example 7).

The test system of another data set is Chamaecyparis obtusa. The data set can be described thus: Foliage treatment of woody plants (Example 10). Format: in vivo. As to conditions: even when applied at a concentration of 0.5%.
From the text: as §1

A further data set relates to various plants. Nature of the data set: Inhibition of regrowth one month after foliage treatment (Example 8). To be noted: visually assessed, compared with SF-1293. Type of data set: in vivo. As for the experimental part:
Aqueous solutions of Phosalacine (Na salt) at different concentrations were applied at a rate of 1500 liters per hectare to naturally occurring plants or plants which were cultured on plates as shown in the following Table at certain stages of growth. The Phosalacine applied contained 0.1% of octylphenylpolyoxy ethanol as surfactant. 7 and 14 days after the foliage treatment, damage to the plants was visually assessed on a scale of from 0 to 5 where 0 indicates no effect and 5 indicates complete kill. […] One month after the foliage treatment, the inhibition of regrowth of the plants was visually investigated.
One month after the foliage treatment, the inhibition of regrowth of the plants was visually assessed.

Data set [2] in a line: Physico-chemical characteristics: acid/base nature. Type of data set: physicochemical.
Another data set has as its system Candida albicans KFl. The data set can be described thus: MIC by agar dilution method. Type of data set: cell-based. To be noted: medium B Dextrose Czapek' medium.
For the next data set, the system named is Erwinia aroideae KB148. The data set can be described thus: MIC by agar dilution method. Type of data set: cell-based. To be noted: medium A Davis's minimal medium (pH 7.0).
In another data set the test system is Piricularia oryzae KF180. Type of data set: cell-based. To be noted: medium B Dextrose Czapek' medium.
The next data set has as its system Mucor racemosus KF223. Nature of the data set: MIC by agar dilution method. Type of data set: cell-based. To be noted: medium B Dextrose Czapek' medium.
The subject of the next data set is Bacillus subtilis KB211. The data set can be described thus: MIC by agar dilution method. Format: cell-based.
The subject of data set [3] is Staphylococcus aureus KB199. Nature of the data set: MIC by agar dilution method. Format: cell-based. To be noted: medium A Davis's minimal medium (pH 7.0).
Another data set deals with Escherichia coli KB213. Nature of the data set: MIC by agar dilution method. Type of data set: cell-based. As to conditions: medium A Davis's minimal medium (pH 7.0). The text has this:
The minimum inhibitory concentrations (MIC values) of Phosalacine were investigated in conventional manner by the agar dilution method and the results are indicated in the following Table, from which it is apparent that Phosalacine is active against various Gram-positive and Gram-negative bacteria and fungi.
[Notes: A . . . Davis's minimal medium (pH 7.0), B . . . Dextrose Czapek'

For a further data set, the system named is Bacillus cereus KB143. The data set can be described thus: MIC by agar dilution method. Type of data set: cell-based. As to conditions: medium A Davis's minimal medium (pH 7.0).
Another data set has as its system Escherichia coli KB176. Nature of the data set: MIC by agar dilution method. Format: cell-based. To be noted: medium A Davis's minimal medium (pH 7.0).
The test system of another data set is Micrococcus luteus KB212. Nature of the data set: MIC by agar dilution method. As to conditions: medium A Davis's minimal medium (pH 7.0). Format: cell-based.
Data set [4] deals with Staphylococcus aureus KB210. The data set can be described thus: MIC by agar dilution method. Type of data set: cell-based. As to conditions: medium A Davis's minimal medium (pH 7.0).
A further data set relates to Killifishes (Medaka). Nature of the data set: Acute toxicity to fish, survival ratio (Example 13). Type of data set: in vivo. To be noted: for Survival ratio (%): killifish, 100 ppm. As for the experimental part: Killifishes (Japanese name, Medaka), were obtained from a market and maintained in a water bath at 25±2° C. for a week. Then the fishes (each group consisting of 10 fishes) were placed in water baths containing the test compounds at given concentrations as shown in the following Table. 24 and 48 hours after this, the survival ratio (%) of each group was visually counted to assess the acute toxity.

Data set [5] can be described thus: Acute toxicity in mice per os, body weight (Example 14). Format: in vivo, Mice ICR (RJ) strain. To be noted: for Body weight: 500 mg/kg per os. As for the experimental part:
Mice [ICR (RJ) strain; female; 6 weeks after birth; each group consisting of 10 mice] were used as test animals to investigate the acute toxity of Phosalacine in mice. A 1% aqueous solution (free acid) was forcibly administered per os to each animal and the body weight of each animal was measured 7 and 14 days after administration. Separately, a similar test was effected by administering Phosalacine (free acid) at a dose of 100 mg/kg.

The subject of another data set is Digitaria adscendens. The data set can be described thus: Foliage treatment of seedlings in pots (Example 7). Format: in vivo. As to conditions: 10 days after foliage treatment, 1000 liter per hectare. The procedure: Upland soil was put in a pot of 10 cm diameter and the seeds of Digitaria adscendens were sown in the soil at a depth of 1 cm from the surface. When the height of the seedlings was about 10 cm, aqueous solutions of the test compounds as shown in the following Table were uniformly sprayed on the plants at a rate of 1.2 ml per plant, equivalent to 1000 liter per hectare. 10 days after the foliage treatment, damage to plants was visually assessed on a scale of from 0 to 10, where 0 indicates no effect and 10 indicates complete kill.

Regarding `CC(C)CC(NC(=O)C(C)NC(=O)C(N)CCP(C)(=O)O)C(=O)O.CC(C)N` (centres unmarked) [Mono isopropylamine salt], the results for the “Damage to plants after 21 days, scale 0 to 5” value (“Damage to plants after 21 days” for short) in the data set with Rumex obtusifolius (0.05%) and with Rumex obtusifolius (0.1%) were 3 and 5, respectively.

`CC(C)C[C@H](NC(=O)[C@H](C)NC(=O)[C@@H](N)CCP(C)(=O)O)C(=O)O` [Phosalacine, phosphinothricyl-alanyl leucine]: the MIC in data set [1] was 25 µg/mL (≈ 68.4 µM); in the data set with Aspergillus niger KF105, more than 100 µg/mL; against Proteus vulgaris KB127 it was 25 µg/mL (≈ 68.4 µM); against Candida albicans KFl, more than 100 µg/mL; in the data set on Erwinia aroideae KB148, less than 0.05 µg/mL; against Piricularia oryzae KF180, 0.1 µg/mL (≈ 0.274 µM). Also, the minimum inhibitory concentration (MIC) was found to be 6.25 µg/mL (≈ 17.1 µM) against Mucor racemosus KF223; 0.4 µg/mL (≈ 1.09 µM) in the data set on Bacillus subtilis KB211 (Bacillus subtilis KB211, medium A Davis's minimal medium (pH 7.0)); 0.2 µg/mL (≈ 0.547 µM) in [3]; 12.5 µg/mL (≈ 34.2 µM) against Escherichia coli KB213; 0.4 µg/mL (≈ 1.09 µM) with Bacillus cereus KB143; 25 µg/mL (≈ 68.4 µM) with Escherichia coli KB176. In addition, the results for the MIC (against Micrococcus luteus KB212; in data set [4]) were 6.25 µg/mL (≈ 17.1 µM) and 0.4 µg/mL (≈ 1.09 µM), respectively. The “herbicidal activity against Cryptomeria japonica” value in the data set with Cryptomeria japonica was “relatively low herbicidal activity”. Besides, the “herbicidal activity against Chamaecyparis obtusa” value in the data set on Chamaecyparis obtusa is recorded as “not herbicidally active”. The “inhibition of regrowth of the plants” value in the data set with various plants is on record as “equal or superior to that of SF-1293”. For the same compound, in [2], the Acid/base nature entry is on record as “Amphoteric”. Besides, in the data set on Bacillus subtilis KB211 (synthetic media), the “Effect of glutamine on activity against Bacillus subtilis” value is recorded as “competitively antagonised by glutamine”. Moreover, the “acute toxity against fish, comparison” value with Killifishes (Medaka) (fish) is “less than that of glyphosate and SF-1293”. Moreover, the “Body weight” value is 23.9 g in data set [5] (After 0 days), 24.5 g in [5] (After 7 days) and 26.2 g in data set [5] (After 14 days). For the same compound, the “change of body weight” value in [5] (dose of 100 mg/kg) is “No significant change of body weight”. In addition, the “acute toxity to mice” value in [5] (per os) was “very low”.

Turning to `CC(C)C[C@H](NC(=O)[C@H](C)NC(=O)[C@@H](N)CCP(C)(=O)O)C(=O)O.CCNCC` [monodiethylamine salt], the “damage to plants, scale 0 to 10” value is on record as 5 (50) with Digitaria adscendens (Concentration 0.01 ppm), 10 (100) in the data set on Digitaria adscendens (Concentration 0.03 ppm) and 10 (100) with Digitaria adscendens (Concentration 0.1 ppm).

Take `CC(C)CC(NC(=O)C(C)NC(=O)C(N)CCP(C)(=O)[O-])C(=O)[O-].[K+].[K+]` (centres unmarked) [Di Ka salt]: the “Damage to plants after 21 days” value is on record as 3 in the data set on Rumex obtusifolius (0.05%) and 5 in the data set on Rumex obtusifolius (0.1%).

In the case of `CC(C)CC(NC(=O)C(C)NC(=O)C(N)CCP(C)(=O)[O-])C(=O)[O-].[Na+].[Na+]` (centres unmarked) [Di Na salt], the “Damage to plants after 21 days” value with Rumex obtusifolius (0.05%) is on record as 3; with Rumex obtusifolius (0.1%), 5.

In the case of `CPCC[C@H](N)C(=O)O` (stereo partly drawn) [L-2-amino-4-methylphosphino butyric acid, reference compound], the “Survival ratio (%)” value in the data set with Killifishes (Medaka) (24 hours) and in the data set on Killifishes (Medaka) (48 hours) was 0% each time.

Regarding `CC(C)CC(NC(=O)C(C)NC(=O)C(N)CCP(C)(=O)O)C(=O)O.CCCCN` (centres unmarked) [Mono n-butylamine salt], the “Damage to plants after 21 days” value with Rumex obtusifolius (0.05%) is on record as 3; in the data set with Rumex obtusifolius (0.1%) it was 5.

What is called MIC is the smallest concentration in the dilution series that meets the test's criterion for growth inhibition.
